# Results: patent US7718804B2, “Quaternary nitrogen heterocyclic compounds for detecting aqueous monosaccharides in physiological fluids” (University of Maryland Biotechnology Institute, priority 2003, dated 2010)
# Read-outs that look alike come from different tables or passages of the source.
# Legend:
# [1] = Spectral properties in water (absorption, emission, quantum yield, lifetime); assay type: physicochemical; details: for φf (quantum yield): relative to SPQ (φf=0.53 in water)
# Procedure: (§1) All steady state fluorescence measurements were performed in a 4×1×1 cm fluorometric plastic cuvette, using a Varian Cary Eclipse fluorometer, and all absorption measurements were performed using a Varian UV/VIS 50 spectrophotometer.
# Time-solved intensity decays were measured using reverse start-stop time-correlated single-photon timing (TCSPC) with a Becker and Hickl Gmbh 630 SPC PC card and unamplified MCP-PMT. Vertically polarized excitation at ˜372 nm was obtained using a pulsed LED source (1 MHz repetition rate) and a dichroic sheet polarizer. The instrumental response function was ˜1.1 ns fwhm. The emission was collected at the magic angle (54.7°) using a long pass filter (Edmund Scientific) which cut-off the excitation wavelengths.
# The intensity decays were analyzed in terms of the multi-exponential model:
# [formula] where αi are the amplitudes and τi are the decay times, Σαi=1.0. The fractional contribution of each component to the steady-state intensity is given by:
# The mean lifetime of the excited state is given by:
# The values of αi and τi were determined by non-linear least squares impulse reconvolution with a goodness-of-fit χ^2R criterion.
# A representative absorption and emission spectra for o-BMQBA in water is shown in FIG. 3B, which corresponds to all three isomers and BMQ. BMQBA has a strong absorption band at ˜320 nm, which can be assigned to n→π* transitions, and an excitation band at ˜427 nm, and as such, has a large Stokes shift of about 100 nm, which is ideal for fluorescence sensing. The quantum yield values of the BMQBA compounds in water relative to N-(3-sulfopropyl)-6-methoxyquinolinium (SPQ) (φf=0.53 in water) are shown in Table 1. The low quantum yields and relatively short lifetime of the BMQBA and BMQ molecules can be attributed to a photo-induced electron transfer, whereby the phenyl ring acts as the donor and the quinolinium moiety acts as the acceptor.
# A representative absorption and emission spectra for o-BMOQBA in water is shown in FIG. 3A, which corresponds to all three isomers and BMOQ. BMOQBA has a strong absorption band at ˜345 nm, which can be assigned to n→π* transitions, and an excitation band at ˜450 nm, and as such, has a large Stokes shift of about 100 nm, which is ideal for fluorescence sensing. The quantum yield values of the BMOQBA compounds in water relative to N-(3-sulfopropyl)-6-methoxyquinolinium (SPQ) (φf=0.53 in water) are shown in Table 2. […] We can only speculate as to the quantum yield differences between the m-BMOQBA and p-BMOQBA compounds, which may be attributed to through-bond and through-space mechanisms.
# [2] = pKa from normalized fluorescence intensity versus pH, with and without 100 mM sugar; assay type: physicochemical
# Text: A normalized plot of intensity at 427 nm as a function of pH is shown in FIG. 6, wherein I is the emission intensity at the specified pH and Io is the initial emission intensity at pH 3.0. Though not to be bound by theory, it is likely that the change in fluorescence intensity relative to pH value is attributed to the change in hybridization of the boron atom with increasing pH. At low pH values, the boronic acid group is an electron-deficient Lewis acid that is sp^2-hybridized and thus is trigonal planar. As the pH increases, the anionic form of the boronic acid begins to form, which corresponds to a more electron rich sp^3-hybridized boron atom and an […] shape. The change in the geometry of the boron atom induces the fluorescence spectral changes of the molecular sensing moieties.
# Based on previously reported pKa values for boronic acid compounds, these pKa values are the lowest reported for a phenyl boronic acid derivative. The quaternary nitrogen of the quinolinium moiety not only reduces the pKa of the compound, but also stabilizes the anionic boronate diester complex (represented by D in FIG. 1), which may explain the affinity of sugar for these novel compounds. Importantly, the large decrease in the pKa of the boronic acid-sugar complex relative to the uncomplexed boronic acid, allows for the quantitative detection of monosaccharides at or below physiological pH because substantial optical changes are observed.
# A normalized plot of intensity at 450 nm as a function of pH is shown in FIG. 14, wherein normalized intensity is the emission intensity at the specified pH, I, relative to the initial emission intensity at pH 3.0, Io. As discussed with reference to o-BMQBA, the change in the geometry of the boron atom may explain the fluorescence spectral changes of the molecular sensing moieties.
# Comparing the pKa values of previously reported boronic acid compounds relative to the novel BMOQBA isomers, these pKa values are relatively low. As discussed with reference to o-BMQBA, the lower pKa values can be attributed to the increased Lewis acidity of the boronate diester complex (represented by D in FIG. 1). Importantly, the large decrease in the pKa of the boronic acid-sugar complex relative to the uncomplexed boronic acid, allows for the quantitative detection of monosaccharides at or below physiological pH because substantial optical changes are observed.
# [3] = Dissociation constant from fluorescence titration with glucose; assay type: binding; details: pH 7.5 phosphate buffer
# Text: (§2) Stability (KS (mM^−1) and dissociation (KD) constants were obtained by fitting the titration curves with sugar to the relation:
# (§3) [formula] where Imin and Imax are initial (no sugar) and final (plateau) fluorescence intensities of the titration curves and KD=(1/KS).
# [4] = Dissociation constant from fluorescence titration with fructose; assay type: binding; details: pH 7.5 phosphate buffer
# Text: as §2, §3
# [5] = Fluorescence intensity response to glucose in solution; details: for decrease in fluorescence intensity: 0.60 mM glucose, pH 6 to 7 range, buffered solution
# Procedure: All steady state fluorescence measurements were performed in a 4×1×1 cm fluorometric plastic cuvette, using a Varian Cary Eclipse fluorometer, and all absorption measurements were performed using a Varian UV/VIS 50 spectrophotometer. […]
# The emission spectra of o-BMOQBA in the presence of varying concentrations of glucose and fructose are shown in FIG. 12A and FIG. 12B, respectively. It can be seen that the fluorescence intensity of o-BMOQBA in pH 7.5 phosphate buffer is inversely proportional to the glucose and fructose concentrations. […] A plot of the intensity ratio, I′/I, at λ=450 nm, where I′ and I represent the fluorescence intensities in the absence and presence of sugar, respectively, is shown in FIG. 12C. […] Referring to FIG. 12C, there is a 2.8-fold change in intensity by the addition of 60 mM sugar.
# (§4) The intensity ratio at λ=450 nm for o-BMOQBA in buffered media (pH 5-8) at various glucose concentrations is shown in FIG. 16A, wherein I′ corresponds to the intensity in the absence of glucose and I corresponds to the intensity at the specified glucose concentration. In addition, the intensity ratio for o-BMOQBA in buffered media (pH 5-8) at low glucose concentrations, typical of those found in tears, is shown in FIG. 16B. Correspondingly, the intensity ratio for o-BMOQBA in buffered media (pH 5-8) at various fructose concentrations is shown in FIGS. 17A and 17B.
# Each BAF was tested to determine the usefulness of these BAFs with regard to tear glucose sensing in a contact lens. Towards that end, both solution-based and doped contact lens-based measurements, the methods of which are described above, were performed and subsequently compared.
# [6] = Fluorescence intensity response to fructose in solution
# Procedure: as §1
# The emission spectra of o-BMQBA in the presence of varying concentrations of fructose and glucose are shown in FIG. 4A and FIG. 4B, respectively. It can be seen that the fluorescence intensity of o-BMQBA in pH 7.5 phosphate buffer is inversely proportional to the glucose and fructose concentrations. […] A plot of the intensity ratio, I′/I, at λ=427 nm, where I′ and I represent the fluorescence intensities in the absence and presence of sugar, respectively, is shown in FIG. 4C. […] It is noted that the concentration of fructose in blood is ˜10 times lower than glucose, a relationship which is also thought to occur in tears (N. Dicesare, et. al., J. Bio. Med. Opt., 7(4), 538-545 (2002)).
# as §4, with “ratio” for “ratio at λ=450 nm”, “o-BMQBA” for “o-BMOQBA”, “8A,” for “16A,”, “8B.” for “16B.”, “9A” for “17A”, “9B.” for “17B.”
# Because physiological fluids contain chloride ions, which are well known quenchers of quinolinium fluorescence (Geddes, C. D., Meas. Sci. Technol., 12(9), R53-R88 (2001); Geddes, C. D., et al., J. Heterocyclic Chem., 36(4), 949-951 (1999); Geddes, C. D., et al., Anal. Biochem., 293(1), 60-66 (2001)), the fluorescence intensity and intensity ratios of o-BMQBA in pH 7.5 buffer having 100 mM NaCl with varying quantities of fructose or glucose was measured and shown in FIGS. 10 and 11, respectively, where I′ corresponds to the intensity in the absence of fructose and I corresponds to the intensity at the specified fructose concentration. It can be seen that although chloride quenched the intensity of the emission in the presence of fructose, the intensity ratio change for fructose is still significant, amounting to a 4-fold decrease in fluorescence intensity at 60 mM fructose (see FIG. 10B). The quenching effect was less significant at lower concentrations of fructose (see FIG. 10C) and for glucose concentrations, both high and low (see FIGS. 11B and 11C). This minimal quenching effect for BMQBA is supported by the calculated Stern-Volmer constants, KSV, for the BMQBA compounds in water, which were determined to be 44.0 M^−1, 20.0 M^−1, 17.0 M^−1 and 35.0 M^−1 for o-BMQBA, m-BMQBA, p-BMQBA and BMQ, respectively. These are small quenching constants that are readily accounted for using simple corrections in the fluorescence signal, as readily determined by one skilled in the art of fluorescence.
# as §4
# Each BAF was tested to determine the usefulness of these BAFs with regard to tear glucose sensing in a contact lens. Towards that end, both solution-based and doped contact lens-based measurements, the methods of which are described above, were performed and subsequently compared. […]
# [7] = Fluoride sensing by fluorescence
# Text: Moreover, because the quenching of fluorescence is not a selective process, any fluorophore quenched by chloride is also quenched by bromide and iodide to an even more substantial extent, allowing for the determination of bromide or iodide concentrations as well. Generally, fluorophores that are quenched by chloride are not quenched by fluoride, which is often attributed to the “heavy-atom effect” (Geddes, C. D., Meas. Sci. Technol., 12, R53 (2001); Lakowicz, J. R., Principles of Fluorescence Spectroscopy, 2nd ed., Kluwer/Academic Plenum Publishers, New York, 1997).
# [8] = in water; cited from earlier work
# [9] = buffer with 100 mM fructose, 100 mM fructose, read-out: pKa (buffer + fructose)
# [10] = buffer with 100 mM glucose, 100 mM glucose, read-out: pKa (buffer + glucose)
# [11] = buffer without sugar, absence of sugar, read-out: pKa (buffer)
smiles,measurement,setting,value
"COc1ccc2c(ccc[n+]2Cc2ccccc2B(O)O)c1.[Br-] [o-BMOQBA, N-(2-boronobenzyl)-6-methoxyquinolinium bromide]",λem (max),[1],450 nm
same,τf (mean lifetime),[1],26.7 ns
same,φf (quantum yield),[1],0.46
same,pKa,[2]; [9],4.8
same,pKa,[2]; [10],6.62
same,pKa,[2]; [11],7.9
same,Kd,[3],49.5 mM
same,Kd,[4],0.65 mM
same,decrease in fluorescence intensity,[5],5-10%
same,change in intensity (I′/I at 450 nm),"[5]; addition of 60 mM sugar, pH 7.5 phosphate buffer (FIG. 12C)",2.8 fold
same,decrease in fluorescence intensity,"[6]; 0.50 mM fructose, pH 6 to 7 range, buffered solution",10-40%
"N#Cc1ccc(/C=C/c2ccc(B(O)O)cc2)cc1 [CSTBA, 4′-cyanostilbene-4-boronic acid]",red shift of emission spectra,"[6]; increasing fructose, pH 8.0 buffer/methanol (2:1)",about 25 nm
"CN(C)c1ccc(/C=C/C=C/C(=O)c2ccc(B(O)O)cc2)cc1 [Chalc 2, 5-[4′-(dimethylamino)phenyl]-1-(4′-boronophenyl)-pent-2,4-dien-1-one]",increase in fluorescence emission,"[6]; 100 mM fructose, pH 8.0, solution",3 fold
"Cc1ccc2c(ccc[n+]2Cc2ccccc2B(O)O)c1.[Br-] [o-BMQBA, N-(2-boronobenzyl)-6-methylquinolinium bromide]",λabs (max),[1],319 nm
same,λem (max),[1],427 nm
same,τf (mean lifetime),[1],4.01 ns
same,φf (quantum yield),[1],0.043
same,pKa,[2]; [9],5.08
same,pKa,[2]; [10],6.18
same,pKa,[2]; [11],6.92
same,Kd,[3],100 mM
same,Kd,[4],4.7 mM
same,decrease in fluorescence intensity,[5],~10%
same,decrease in fluorescence intensity,"[6]; 60 mM fructose, pH 7.5 buffer with 100 mM NaCl",4 fold
"Cc1ccc2c(ccc[n+]2Cc2ccccc2)c1 [BMQ, N-benzyl-6-methylquinolinium bromide]",λabs (max),[1],322 nm
same,λem (max),[1],427 nm
same,τf (mean lifetime),[1],2.59 ns
same,φf (quantum yield),[1],0.045
"COc1ccc2c(ccc[n+]2Cc2ccccc2)c1 [BMOQ, N-benzyl-6-methoxyquinolinium bromide]",λem (max),[1],453 nm
same,τf (mean lifetime),[1],27.3 ns
same,φf (quantum yield),[1],0.54
"CN(C)c1ccc(/C=C/c2ccc(B(O)O)cc2)cc1 [DSTBA, 4′-dimethylaminostilbene-4-boronic acid]",ratiometric change in intensity,"[5]; 60 mM glucose, pH 8.0 buffer/methanol (2:1)",2 fold
same,ratiometric change in intensity,"[6]; 60 mM fructose, pH 8.0 buffer/methanol (2:1)",4.5 fold
same,blue shift of emission spectra,"[6]; fructose 0 mM→100 mM, pH 8.0 buffer/methanol (2:1)",about 30 nm
"Nc1ccc2c(ccc[n+]2Cc2ccccc2B(O)O)c1.[Br-] [BAQBA, N-(2-boronobenzyl)-6-aminoquinolinium bromide]",detectable fluoride concentration,[7],below 50 mM
"COc1ccc2c(ccc[n+]2CCCS(=O)(=O)O)c1 [SPQ, N-(3-sulfopropyl)-6-methoxyquinolinium]",φf (quantum yield) of reference standard,[8],0.53
